Experimental findings from patent publication US7670782B2, “Screening of compounds for CAT1 transporter activity” (XenoPort, Inc., priority 2005, dated 2010) are described below.

The IC50 is the midpoint of a concentration-inhibition curve. The low end stands for greater potency, the high end for weaker potency. As usually defined, the Km is the concentration of substrate that gives half-maximal velocity. By pIC50 is commonly meant the negative decadic logarithm of the IC50, by convention in mol/L.

The target of data set [1] is T1, hCAT1 (Homo sapiens, UniProt P30825).
T1 construct: expressed in transfected cells; host or cells: LLCPK-TREx (porcine kidney epithelial) cells, induced with tetracycline and butyrate
The data set is described as follows: hCAT1 competition uptake assay (inhibition of 3H-arginine uptake into LLCPK-TREx-hCAT1 cells). The format is cell-based. To be noted: 3H-arginine as substrate; for IC50: LLCPK-TREx-hCAT1 cells induced to express hCAT1, 10 minutes at room temperature. As for the experimental part: A modified competition uptake assay was developed to determine the ability of a test compound(s) to inhibit the uptake of radiolabeled substrates into LLCPK-TREx-hCAT1 cells induced to over-express hCAT1. The results are stated as affinities (IC50).
The competition uptake assay was prepared as follows: Compounds were prepared for assay by diluting a 100 mM stock concentration (in DMSO) to the appropriate working concentration. Typically, seven-point dose response curves were prepared starting at a final assay concentration of 3 mM and carrying out three-fold dilutions. These dilutions were prepared by making a working “compound” plate that contained a 2×solution of the desired starting concentration of each test compound in duplicate in row A of a v-bottom microtiter plate. Six 3-fold serial dilutions (from row B to G) were made into the sodium free HBSS assay buffer (60 mg/L KH2PO4 (0.4 mM) (Sigma; P-0662); 0.42 g/L KHCO3 (4.17 mM); (Sigma; P-6037); 1 g/L Glucose ([…]) (Sigma; G-7528); 2.1 g/L MOPS (10 mM) (Sigma; M-1254); 1.05 ml/L MgCl2.(H2O)6 (Sigma; M-1028); 100 mg/L MgSO4.(H2O)7 (Sigma; M-5921); 140 mg/L CaCl2 (1.3 mM)(Sigma; C-5080); 19.1 g/L Choline Chloride (137 mM) (Sigma; C-7527), pH to 7.4 with KOH) with the appropriate amount of DMSO so that the DMSO concentration remained constant at all dilutions. The resulting “compound” plate contained serial dilutions of six compounds in duplicate. The final row (H) of the assay plate was filled with HBSS buffer alone (H1-H6) or 10 mM unlabeled Arginine in HBSS (H7-H12) to measure the total or non-specific uptake, respectively.
^3H-Arginine was diluted into HBSS buffer to a final concentration of 4,000 cpm/μl. Sufficient solution was prepared to allow addition of 25 μl/well (the final concentration was 100,000 cpm/well).
LLCPK-TREx-hCAT1 cells, plated in 96-well plates and treated with 2 mM butyrate and tetracycline (or tet analog (e.g., doxycycline), were removed from the CO2 incubator. Growth media was removed from the cells, and the cells were washed twice in room temperature HBSS (100 μl/well/wash) using a 96-well plate washer (Bio Tek ELX405). Alternatively, cells were washed manually with equivalent volumes using a multichannel pipettor. Immediately before beginning the assay, the final 100 μl wash solution was removed from the cells by aspiration.
Using a 96-well pipettor, 25 μl from the “compound” plate was added to each well of the cell plate. The assay was started by adding 25 μl of the ^3H-Arginine working solution. The plate was incubated at room temperature for 10 minutes. The assay was stopped by washing the cells four times with ice-cold HBSS buffer using a ELX405 plate washer (100 μl buffer/well/wash) having an angled buffer dispenser.
Scintillation fluid (200 μl) (Optiphase Supermix (Perkin Elmer) was added to each well, and the plate was covered with a 96-well adhesive plate cover and placed on a shaker for 20 minutes. The plates were counted on a 96-well plate scintillation counter for 60 sec/well. The data were analyzed using a sigmoidal dose response curve-fitting program (Prism, GraphPad, Inc, San Diego, Calif.; equation: one-site competition).
The competition experiment was performed as described in Example 7. Non-specific uptake was determined by measuring the uptake into cells not induced to express the transporter (“no tet”). […] In control cells, uptake of labeled arginine remained at background levels and was largely unaffected by an excess of unlabeled substrates.

The target in data set [2] is T2, PgP (Homo sapiens, UniProt P08183).
T2 construct: purchased BD Biosciences; host or cells: baculovirus membranes
The data set can be described thus: Transwell monolayer efflux assay in MDCK cells transfected with TREx-PgP. The following applies: 2.5 nM 3H-vinblastine, absence and presence of 250 μM verapamil. The format is in vitro ADME. How it is done: Transwell monolayer efflux assays can be performed by transfecting MDCK cells with the tetracycline-inducible TREx-PgP expression vector. The cells optionally can be transfected with a nucleic acid encoding the transporter of interest. The transfected cells are seeded on polycarbonate filter membranes in transwell dishes and grown for 3-5 days, yielding a polarized monolayer with tight junctions between cells.

For data set [3], the target named is T1, hCAT1. The data set is described as follows: hCAT1 direct uptake assay (LC-MS-MS, LLCPK-TREx-hCAT1 cells induced vs no tet). Type of data set: cell-based. To be noted: direct uptake into LLCPK-TREx-hCAT1 cells. As for the experimental part:
Four concentrations (bracketing the affinity as measured by competition assays) per compound were routinely tested. Non-specific uptake was determined by measuring the uptake into cells not induced to express the transporter (“no tet”).
Typically, four concentrations bracketing the IC50 were tested. […] The samples were robustly vortexed and centrifuged for 10 minutes at 13,200 rpm to spin down any precipitate. […] Three additional 2-fold dilutions were made in the subsequent rows (B-D or […]) in HBSS.
An internal standard of 50 μM propranolol in 50:50 ethanol:water was also prepared.
The cells were washed twice in room temperature HBSS (100 μl/well/wash) using a 96-well plate washer (Bio Tek ELX405). Alternatively, cells were washed manually with equivalent volumes using a multichannel pipettor. Immediately before the assay was begun, the final 100 μl wash solution was removed from the cells.
After the final wash, as much of the wash buffer as possible was removed by aspirating the wells with a probe that reached the bottom of the wells. (Residual salts from the wash buffer can adversely affect the LC-MS-MS by disrupting the LC method or by suppressing the MS signal.) 150 μl of a 50:50 ethanol:water solution was added to each well to lyse the cells and extract the test compound. The plate was covered and allowed to sit for 20 minutes at room temperature to ensure cell lysis.
120 μl of the cell extract was removed from each well and transferred to a fresh 96-well v-bottom polypropylene plate. This plate was covered with an adherent cover (top seal) and centrifuged for 15 minutes at 5,700 rpm (Allegra 25R centrifuge) at 4° C. to pellet any cell precipitate. 10 μl of the 50 μM propranolol solution was added to each well of a fresh 96-well plate (a plate amenable for sampling in the LC-MS-MS). […] The levels of intracellular compounds were determined by converting the peak area to concentration by extrapolating from the standard curve for each compound. Uptake was expressed as μM/well.

T1 sequence (P30825 whole entry): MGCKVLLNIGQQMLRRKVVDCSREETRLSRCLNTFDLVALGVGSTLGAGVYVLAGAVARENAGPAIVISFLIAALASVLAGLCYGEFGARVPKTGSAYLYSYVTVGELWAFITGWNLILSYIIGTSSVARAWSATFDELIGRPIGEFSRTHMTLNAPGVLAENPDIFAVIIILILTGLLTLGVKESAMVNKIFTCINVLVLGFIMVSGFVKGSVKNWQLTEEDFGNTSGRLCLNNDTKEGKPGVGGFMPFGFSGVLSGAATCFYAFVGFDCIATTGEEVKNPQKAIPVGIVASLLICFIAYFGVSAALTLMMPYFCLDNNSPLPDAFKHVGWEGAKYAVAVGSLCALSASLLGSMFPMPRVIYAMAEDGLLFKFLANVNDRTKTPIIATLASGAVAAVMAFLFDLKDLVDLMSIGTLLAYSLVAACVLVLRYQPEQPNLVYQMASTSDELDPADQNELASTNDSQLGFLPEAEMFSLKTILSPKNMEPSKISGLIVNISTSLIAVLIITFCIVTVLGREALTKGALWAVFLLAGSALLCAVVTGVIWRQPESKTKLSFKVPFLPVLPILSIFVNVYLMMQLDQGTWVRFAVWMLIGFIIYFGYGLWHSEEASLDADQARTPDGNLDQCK
T2 sequence (P08183 whole entry): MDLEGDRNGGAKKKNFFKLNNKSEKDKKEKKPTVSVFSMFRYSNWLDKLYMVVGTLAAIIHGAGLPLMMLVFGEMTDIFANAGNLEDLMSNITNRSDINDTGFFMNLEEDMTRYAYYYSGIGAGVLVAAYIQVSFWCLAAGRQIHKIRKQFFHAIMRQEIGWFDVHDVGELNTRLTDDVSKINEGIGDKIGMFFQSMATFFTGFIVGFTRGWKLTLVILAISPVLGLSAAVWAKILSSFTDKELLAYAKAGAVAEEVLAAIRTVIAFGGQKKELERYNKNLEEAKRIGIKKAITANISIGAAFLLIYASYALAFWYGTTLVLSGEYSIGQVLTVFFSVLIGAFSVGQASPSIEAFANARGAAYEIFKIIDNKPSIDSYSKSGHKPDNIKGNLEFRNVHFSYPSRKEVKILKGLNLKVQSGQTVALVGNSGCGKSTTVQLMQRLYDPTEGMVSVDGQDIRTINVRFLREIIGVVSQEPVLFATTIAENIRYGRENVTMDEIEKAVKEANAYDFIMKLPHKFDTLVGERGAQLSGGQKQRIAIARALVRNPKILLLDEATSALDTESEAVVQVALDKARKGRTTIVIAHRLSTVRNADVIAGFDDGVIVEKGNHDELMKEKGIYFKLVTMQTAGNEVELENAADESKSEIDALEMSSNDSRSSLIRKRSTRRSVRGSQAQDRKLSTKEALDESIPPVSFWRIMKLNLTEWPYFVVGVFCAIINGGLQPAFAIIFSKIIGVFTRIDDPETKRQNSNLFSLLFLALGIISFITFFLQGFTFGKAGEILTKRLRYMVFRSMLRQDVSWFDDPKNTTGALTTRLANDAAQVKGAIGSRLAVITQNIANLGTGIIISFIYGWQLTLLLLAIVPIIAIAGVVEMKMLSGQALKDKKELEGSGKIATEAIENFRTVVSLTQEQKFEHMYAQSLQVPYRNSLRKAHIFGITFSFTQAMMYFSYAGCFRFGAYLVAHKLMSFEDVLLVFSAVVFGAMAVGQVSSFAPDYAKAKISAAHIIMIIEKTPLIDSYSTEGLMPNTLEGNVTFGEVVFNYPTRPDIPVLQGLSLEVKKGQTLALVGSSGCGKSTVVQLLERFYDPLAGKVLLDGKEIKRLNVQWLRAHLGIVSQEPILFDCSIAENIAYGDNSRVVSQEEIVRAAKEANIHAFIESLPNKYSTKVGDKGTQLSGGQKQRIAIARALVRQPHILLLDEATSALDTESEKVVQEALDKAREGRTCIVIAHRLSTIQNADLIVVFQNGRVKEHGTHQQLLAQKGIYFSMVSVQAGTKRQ

`N=C(N)NCCC[C@H](N)C(=O)O` [Arginine, arginine]: the IC50 in data set [1] came to 83 µM.
In data set [1], `NCCCC[C@H](N)C(=O)O` [Lysine, lysine] had an IC50 of 140 µM.
On the same count and under the same terms, the figure for `NCCC[C@H](N)C(=O)O` [Ornithine, ornithine] is 73 µM.
As to `CC[C@]1(O)C[C@@H]2CN(CCc3c([nH]c4ccccc34)[C@@](C(=O)OC)(c3cc4c(cc3OC)N(C)[C@H]3[C@@](O)(C(=O)OC)[C@H](OC(C)=O)[C@]5(CC)C=CCN6CC[C@]43[C@@H]65)C2)C1` [^3H-vinblastine, vinblastine], in data set [2], the “PgP substrate status from apical to basolateral and basolateral to apical transport” value is listed as “substrate of PgP”.
In turn, N-methyl arginine [N-Me-Arg] showed a pKm in data set [3] of 3.8. Moreover, the Vmax in data set [3] (5 minutes at room temperature) stood at 3.9 μM/well. Besides, the Michaelis-Menten constant (Km) in data set [3] (5 minutes at room temperature, specific uptake (+TET minus no TET)) came to 158 µM. The compound also showed a negative-log IC50 (pIC50) in data set [1] (LLCPK-TREx-hCAT1 cells induced to express hCAT1) of 3.7. The compound also came in with an IC50 in data set [1] of 190 µM.
